Tests used:
[1] = test system: 3T3 cells; test: Effects of Gd concentration and levitation on cell viability (live/dead assay of spheroids); assay type: cell-based; conditions: 48 hours exposure to 0, 25, 50, 100 mM Gd^+; magnetic levitation (LEV) and hanging drop (HD); FIG. 30
Experimental: Referring now to FIG. 30, the effects of Gd concentration and levitation on cell viability are illustrated. 3T3 cells were exposed for 48 hours to different concentration of Gd^+ (0, 25, 50, 100 mM) during magnetic levitation (LEV) and hanging drop (HD). Spheroid viability was then assessed with live/dead assay (calcein/ethidium homodimer^−1). […] The white scale bar is 100 μm.

[2] = test system: red blood cells
Experimental: The levitation of red blood cells (RBC) was as follows. Blood samples from healthy donors were received from Stanford University Blood Center. Whole blood was diluted at varying ratios in PBS containing 30 mM Gd^+. Concentrations were described in the results. Concentrations of 450 and 90 million cells/mL of blood were used to measure blood stabilization time. Varying concentrations of blood, ranging from 250 to 0.8 million cells/mL were used to correlate the width of the blood band and cell concentrations.
Referring now to FIGS. 7A-7D, the effect of drugs was monitored using the levitation device. […] FIG. 7D illustrates the actual images that were analyzed to produce the plots of FIGS. 7B and 7C. In FIG. 7D, a certain density beads was added each time for calibration experiments.
Images were taken over time in 60 minutes. […] FIG. 6B is then a graph showing the area analysis. Area of the blood were measured using an image) script developed in the lab. […] Looking at FIG. 6C, the levitation height is measured using same script. Height is directly correlated with density of cells.

Row | Compound | spheroid viability (calcein/ethidium homodimer live/dead assay) [1] | levitation height of red blood cells ([2]; 75 mg/mL chloroquine spiked into red blood cells, with increasing time of exposure, FIG. 7A) | levitation height of blood sample in capillary channel ([2]; chloroquine at 7.5 mg/mL and 75 mg/mL, Sample-1, Sample-2, Sample-3, especially after the high dosage, FIG. 8) | density of blood (from levitation height) ([2]; i-LEV, higher drug concentration, within 50 minutes, FIG. 6C)
1 | O=C([O-])CN1CCN(CC(=O)[O-])CCN([C@H](CO)[C@H](O)CO)CCN(CC(=O)[O-])CC1.[Gd+3] [Gd^+] | majority of the cells in the aggregates are alive | – | – | –
2 | CCN(CC)CCCC(C)Nc1ccnc2cc(Cl)ccc12 (stereo not shown) [chloroquine] | – | decreases | levels out at a very low height | higher density

From patent publication US12485419B2, “Sorting biological and non-biological moieties using magnetic levitation” (The Board of Trustees of the Leland Stanford Junior …, priority 2015, dated 2025)
